The record followed here is patent US20260193672A1, “INDUCIBLE CELL SUICIDE SWITCHES AND THEIR USE IN CELL AND GENE THERAPIES” (The General Hospital Corporation, priority 2022, published 2026).

Data set [1] relates to Jurkat cells. The data set is described as follows: Loss of BFP+ cells with three degron tags fused to ICAD. The data set is classed as cell-based. Conditions: 48 hours of exposure to controller drug; SMASH tag, dTAG or IKZF3 degron fused to ICAD. Here is the method:
(§1) Unless otherwise indicated, cell death assays with Jurkat or primary human T cells were performed by 48 hour incubation with the relevant drug and flow cytometry analysis for the marker of transduction.
To determine whether the ICAD-degron CAD suicide switch design is generalizable to multiple degron systems, three different degron tags (SMASH, dTag, superdegron) were fused to ICAD to facilitate ICAD degradation.

The subject of data set [2] is Jurkat cells. The data set is described as follows: Competitive growth assay of modified lenalidomide suicide switches. Conditions: for cell viability, normalized fluorescence: in the absence of lenalidomide, normalized to % transduced on day 0. The format is cell-based. From the text:
To assess whether further modification of CAD could further enhance the suicide switch, we performed structural modeling of CAD, identifying side chain interactions with R11 and W 11 in the mutant form.

Data set [3] concerns ICAD-degron/CAD suicide switch-positive primary human T cells. The data set is described as follows: Depletion of ICAD-degron/CAD suicide switch-positive T cells. The format is cell-based. Conditions: 1 uM lenalidomide treatment. Here is the method:
as §1
Control of CAR T cell function with a lenalidomide suicide switch was also evaluated.

Data set [4] has as its system cells expressing ICAD-degron/CAD. The data set is described as follows: Cell depletion by ICAD-degron/CAD lenalidomide-inducible suicide switch (summary statement). The data set is classed as cell-based. Conditions: lenalidomide-induced, subtherapeutic lenalidomide concentrations. Here is the method:
as §1

Data set [5] concerns suicide switch CAR T cells. The data set is described as follows: Incucyte live cell imaging co-culture assay, CAR T cell proliferation. The format is cell-based, human. Here is the method: (§2) On day −1, tissue culture plates were coated with anti-CD71 antibody diluted in PBS. On day 0, the plates were washed with PBS and then Nalm6-luciferase-GFP cells were added to the coated plates. Four hours later, primary human CAR T cells were added at a 1:1 ratio with the Nalm6 cells. Plates were imaged every hour for at least 90 hours ([…] ZOOM, live-cell analysis system). Total green, red, and blue object areas were collected, indicative of GFP+ tumor and mCherry+/mTagBFP2+ CAR and/or suicide switch T cell area.
In summary, the suicide switch can be used to deplete CAR T cells (FIG. 6E).

Data set [6] relates to cells transduced to express pairs of BCL-xL and variants of PUMA. As to the kind of experiment: Growth and survival of cells expressing BCL-xL and PUMA variants fused to 913iK0. Conditions: BCL-xL and PUMA variants fused to E3 recruitment domain 913iK0. The data set is classed as cell-based. Here is the method:
Pairs of pro/anti-apoptotic proteins were evaluated for their ability to work as an effective suicide switch. BCL-xL and BIM transgene pairs were toxic to Jurkat cells transduced to express these lentiviruses, as assessed by total cell number 48 hours after high-titer transduction, see FIG. 1A. […] In this design, the goal was for the pro-apoptotic protein PUMA to bind endogenous anti-apoptotic proteins, and for drug-dependent recruitment to the E3 to result in anti-apoptotic protein ubiquitination, degradation, and cell death.

A further data set relates to NALM6 tumor cells. As to the kind of experiment: Incucyte live cell imaging co-culture assay, tumor cell cytolysis. The format is cell-based. Here is the method:
as §2
Tumor cell cytolysis was evaluated by Incucyte live cell imaging co-culture assay with NALM6 tumor cells.
We also generated a tri-cistronic suicide switch CAR lentivector. The same Incucyte live cell imaging co-culture assay with NALM6 tumor cells and single lentivector ICAD-degron/CAD/CAR was performed in primary human T cells. […] With lenalidomide, anti-tumor cytolysis was prevented.

The subject of data set [7] is Jurkat cells expressing the switch. The data set is described as follows: DNA damage assay (gamma-H2AX intracellular flow). The format is cell-based. From the text: To determine whether promoter strength modifies ICADdegron-CAD suicide switch efficiency, Jurkat cells were transduced to express the ICAD-degron 2A CAD p.R11W suicide switch was expressed, driven by an EF1alpha or PGK promoter.

For data set [8], the system named is primary human CAR T cells. As to the kind of experiment: Competitive proliferation assay of suicide switch-transduced versus untransduced cells. The data set is classed as cell-based. Conditions: without lenalidomide. From the text: Cells were stimulated weekly with an equal number of irradiated K562 cells transduced to express CD3 and CD28 scFvs. Flow cytometry was used to enumerate the percentage of mTagBFP2+ cells on days 0, 7, and 14.

A further data set relates to primary human T cell. As to the kind of experiment: Four-day growth assay. The format is cell-based. Conditions: compared with other CAD sequences and vector control. Here is the method: To test whether variations in CAD modify the performance of CAD/ICAD suicide switch, a primary human T cell four-day growth assay was performed comparing vector control, and then three modifications of ICAD-degron 2A CAD expression, differentiated by the CAD sequences.

The test system of a further data set is primary human T cells. As to the kind of experiment: Cell depletion, CAD/ICAD versus iCasp9 suicide switch, head-to-head. The format is cell-based. Conditions: dose ranges of lenalidomide and AP1903, normalized to untreated cells. As to the method: as §1

Bounds are passed on as bounds.

Take `Nc1nc(O)c2ncn(COC(CO)CO)c2n1` [ganciclovir]: the “drug-dependent cell depletion (loss of BFP+ cells)” value with Jurkat cells [1] is “but not the SMASH tag, allowed for drug-dependent cell depletion”.
For the compound “ICAD-degron-CADp.Y49W: suicide switch transgene with CAD p.Y49W (SEQ ID NO: 25/26)”, in the data set on Jurkat cells [2], the “cell viability, normalized fluorescence” value is “improved cell viability”.
Still for that read-out and setting: the result for “ICAD-degron-CADp.R11W/E68A: suicide switch transgene with CAD p.R11W/E68A (SEQ ID NO: 29/30)” reads “improved cell viability”.
Consider `Nc1cccc2c1CN(C1CCC(=O)NC1=O)C2=O` (stereo not drawn) [lenalidomide], for which, in [3], the “depletion of suicide switch-positive primary human T cells” value was “successful depletion”. Besides, the cell depletion in [4] was over 90%. Also, the “time to depletion of the CAR T cells” value in [5] (after 16 hour delayed lenalidomide, without rebound) was at most 24 h. The “effect on suicide switch CAR T cell expansion” value in data set [5] (immediate lenalidomide) is recorded as “prevented suicide switch CAR T cell expansion”. Besides, the “effect on growth and survival of cells” value in data set [6] was “did not alter the growth and survival”. For the same compound, in the data set on NALM6 tumor cells (16 hour delayed lenalidomide, dual-vector CAR T cells), the “effect on tumor cell depletion by suicide switch CAR T cells” value is “ablated tumor cell depletion”. Moreover, in the data set on NALM6 tumor cells (immediate lenalidomide, dual-vector CAR T cells), the “effect on tumor cell cytolysis by suicide switch CAR T cells” value is listed as “prevented tumor cell cytolysis”. Further, the “effect on anti-tumor cytolysis, single lentivector ICAD-degron/CAD/CAR T cells” value in the data set with NALM6 tumor cells (with lenalidomide) was “prevented”. For the same compound, the “time in which DNA damage sensing occurred” value in data set [7] (gamma-H2AX, timecourse after 1000 nM lenalidomide addition) was “within one hour”. Also, in the data set on Jurkat cells [1], the “drug-dependent cell depletion (loss of BFP+ cells)” value is recorded as “allowed for drug-dependent cell depletion”.
In turn, “ICAD-degron 2A CAD p.R11W: multicistronic transgene: C-terminally degron-tagged human ICAD, 2A, human CAD p.R11W (SEQ ID NO: 19/20)” returned a cell depletion in [4] of over 90%. In addition, the “T cell proliferation in competition with untransduced cells, compared with control” value in [8] is “comparable”. In the data set with primary human T cell, the drug-independent cell fitness entry is “enhanced drug-independent cell fitness”. Moreover, the “DNA damage response by promoter strength” value in [7] (Jurkat cells, EF1alpha promoter compared with PGK promoter) is recorded as “enhanced DNA damage response”. The “cell viability, normalized fluorescence” value in the data set with Jurkat cells [2] is recorded as “improved cell viability”. Moreover, in the data set on primary human T cells, the “cell killing compared with iCasp9 switch” value is “more complete cell killing”.
On to `CC[C@H](C(=O)N1CCCC[C@H]1C(=O)O[C@H](CCc1ccc(OC)c(OC)c1)c1ccccc1OCC(=O)NCCCCCCOc1cccc2c1C(=O)N(C1CCC(=O)NC1=O)C2=O)c1cc(OC)c(OC)c(OC)c1` (stereo partly drawn) [dTAG-13, 1-[(2S)-1-Oxo-2-(3,4,5-trimethoxyphenyl)butyl]-(2S)-2-piperidinecarboxylate (1R)-3-(3,4-dimethoxyphenyl)-1-[2-[2-[[6-[[2-(2,6-dioxo-3-piperidinyl)-2,3-dihydro-1,3-dioxo-1H-isoindol-4-yl]oxy]hexyl]amino]-2-oxoethoxy]phenyl]propyl ester], for which the “drug-dependent cell depletion (loss of BFP+ cells)” value in the data set on Jurkat cells [1] is given as “allowed for drug-dependent cell depletion”.
As to “ICAD-degron-CADp.R11W/K18A: suicide switch transgene with CAD p.R11W/K18A (SEQ ID NO: 27/28)”, the “cell viability, normalized fluorescence” value with Jurkat cells [2] is “improved cell viability”. For the same compound, the cell depletion entry in the data set with Jurkat cells [2] (with 1 uM lenalidomide) is “efficient cell depletion”. Further, in the data set with Jurkat cells [2] (without lenalidomide), the drug-independent competitive growth entry is on record as “most improved”.
Regarding “ICAD-degron-CADp.R11A: suicide switch transgene with CAD p.R11A (SEQ ID NO: 23/24)”, in the data set with Jurkat cells [2], the “cell viability, normalized fluorescence” value was “improved cell viability”.
